Measured values published in patent US7754709B2 (Solvay Pharmaceuticals BV, priority 2003, dated 2010).

Columns and labels:
Assay type in all cases: cell-based
[1] = molecular target: T1, 17β-hydroxysteroid dehydrogenase type 2 (Homo sapiens, UniProt P37059); assay: Inhibition of 17β-HSD type 2 in MCF-7 cells stably expressing the isoenzyme (HPLC, tritium labeled estradiol); conditions: 2 nM estradiol, read-out: % Inhibition of the 17β-HSD enzyme type 2 (HSD2); for inhibition at 1 µM: MCF7, 1 μM compound; for inhibition at 10 µM: MCF7, 10 μM compound
T1 construct: expressed in transfected cells; host or cells: MCF-7
T1 sequence (P37059 1-387): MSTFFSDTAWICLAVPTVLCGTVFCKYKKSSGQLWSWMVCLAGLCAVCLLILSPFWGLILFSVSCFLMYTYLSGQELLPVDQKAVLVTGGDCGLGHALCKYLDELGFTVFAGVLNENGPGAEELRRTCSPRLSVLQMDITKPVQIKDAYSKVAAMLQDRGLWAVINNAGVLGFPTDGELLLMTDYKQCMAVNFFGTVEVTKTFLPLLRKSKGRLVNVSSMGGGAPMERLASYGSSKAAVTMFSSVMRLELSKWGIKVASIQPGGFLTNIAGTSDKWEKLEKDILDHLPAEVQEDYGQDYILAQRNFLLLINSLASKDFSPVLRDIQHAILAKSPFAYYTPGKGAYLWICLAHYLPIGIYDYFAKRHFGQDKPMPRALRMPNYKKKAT
Source text: (§1) Biological Testing Materials and Methods 1. Inhibition of the 17β-hydroxysteroid dehydrogenase type 1, type 2 and type 3 enzyme
(§2) The compounds were screened in respect of 17β-HSD enzyme activity in vitro on established M CF-7 cell lines, each stably expressing one of the respective 17β-HSD isoenzymes. The interconversion of substrate by each isoenzyme and the 17β-HSD inhibiting activity of chemical compounds in these cell lines were detected by HPLC system.
(§3) Varying amounts of the test compounds were incubated in the growth medium of the 17β-HSD expressing cells together tritium labeled substrate (2 nM estrone for 17β-HSD type 1; 2 nM estradiol for 17β-HSD type 2; and 2 nM androstenedione for 17β-HSD type 3). The medium samples were removed after exact incubation time and the reaction is stopped by trichloroacetic acid (TCA). The samples were analyzed by HPLC-coupled flow scintillation analysis.
(§4) For each enzyme type, the HSD-inhibiting activity of an individual test compound was calculated by comparing the conversion of a control sample without any test compound (referred to as “Negative Control”) to the (reduced) conversion of the test sample containing the particular compound to be tested (referred to as “Test Sample”).
(§5) Two concentrations of each compound were used. The number of the compound refers to the numbers indicated in the Experimental Section.

[2] = molecular target: T2, 17β-hydroxysteroid dehydrogenase type 3 (Homo sapiens, UniProt P37058); assay: Inhibition of 17β-HSD type 3 in MCF-7 cells stably expressing the isoenzyme (HPLC, tritium labeled androstenedione); conditions: 2 nM androstenedione, read-out: % Inhibition of the 17β-HSD enzyme type 3 (HSD3); for inhibition at 1 µM: MCF7, 1 μM compound; for inhibition at 10 µM: MCF7, 10 μM compound
T2 construct: expressed in transfected cells; host or cells: MCF-7
T2 sequence (P37058 1-310): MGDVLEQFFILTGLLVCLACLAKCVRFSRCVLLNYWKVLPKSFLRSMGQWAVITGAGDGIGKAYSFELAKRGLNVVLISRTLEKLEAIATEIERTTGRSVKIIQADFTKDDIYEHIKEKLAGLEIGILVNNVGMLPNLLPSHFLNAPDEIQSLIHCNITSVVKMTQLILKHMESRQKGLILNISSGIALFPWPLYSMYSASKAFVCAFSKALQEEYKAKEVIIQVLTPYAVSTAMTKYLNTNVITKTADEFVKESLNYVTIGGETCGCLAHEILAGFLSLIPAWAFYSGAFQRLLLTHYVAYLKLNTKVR
Source text: as §1, §2, §3, §4, §5

[3] = molecular target: T3, 17β-hydroxysteroid dehydrogenase type 1 (Homo sapiens, UniProt P14061); assay: Inhibition of 17β-HSD type 1 in MCF-7 cells stably expressing the isoenzyme (HPLC, tritium labeled estrone); conditions: 2 nM estrone, read-out: % Inhibition of the 17β-HSD enzyme type 1 (HSD1); for inhibition at 1 µM: MCF7, 1 μM compound; for inhibition at 10 µM: MCF7, 10 μM compound
T3 construct: expressed in transfected cells; host or cells: MCF-7
T3 sequence (P14061 1-328): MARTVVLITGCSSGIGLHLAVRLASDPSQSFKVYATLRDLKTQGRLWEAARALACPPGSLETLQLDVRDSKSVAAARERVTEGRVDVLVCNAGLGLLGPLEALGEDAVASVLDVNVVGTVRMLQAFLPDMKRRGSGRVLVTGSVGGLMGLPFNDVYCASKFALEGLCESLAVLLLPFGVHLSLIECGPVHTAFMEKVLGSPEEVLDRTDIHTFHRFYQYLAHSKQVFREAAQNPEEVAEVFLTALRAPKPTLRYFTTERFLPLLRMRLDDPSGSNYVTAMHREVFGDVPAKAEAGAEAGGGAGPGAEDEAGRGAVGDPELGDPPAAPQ
Source text: as §1, §2, §3, §4, §5

SMILES | inhibition at 1 µM [1] | inhibition at 10 µM [1] | inhibition at 1 µM [2] | inhibition at 10 µM [2] | inhibition at 1 µM [3] | inhibition at 10 µM [3]
O=CC1=C(Cl)c2sc3nc4n(c(=O)c3c2CC1)CCCCCC4C=O (stereo not drawn) [Compound 11, 4-Chloro-1,2,7,9, 10,11,12,14-octahydro-14-oxo-8H-[1]benzothieno[2′,3′:4,5]pyrimido-[1,2-a]-azocine-3,7-dicarbaldehyde] | 16.7% | 28.3% | 7.3% | 31.7% | 4.7% | 51.1%
O=Cc1ccc2c(sc3nc4n(c(=O)c32)CCCCC4)c1Sc1ccccc1 [Compound 12, 7,8,9,10,11,13-Hexahydro-13-oxo-4-(phenylthio)-[1]benzothieno[2′,3′:4,5]pyrimido[1,2-a]azepine-3-carbaldehyde] | 7% | 8.9% | 8.6% | 25.5% | 15.1% | 87.9%
O=c1c2c3c(sc2nc2n1CCCCCC2)C(O)CCC3 (stereo not drawn) [Compound 13, 1,2,3,4,7,8,9,10,11,12-Decahydro-4-hydroxy-14H-[1]benzothieno[2′,3′:4,5]pyrimido[1,2-a]azocin-14-one] | 1.7% | 18.6% | -2.2% | 11.7% | 5% | 20%
CC1CCc2nc3sc4c(c3c(=O)n2CC1)CCCC4 (stereo not drawn) [Compound 14, 9-Methyl-2,3,4,7,8,9,10,11-octahydro-[1]benzothieno[2′,3′:4,5]pyrimido[1,2-a]azepin-13(1H)-one] | 5.9% | 14.9% | 27.6% | 34.2% | 12.8% | 19.6%
CCOC(=O)C1CCCn2c1nc1sc3c(c1c2=O)CCCC3 (stereo not drawn) [Compound 15, 1,2,3,4,7,9,10,12-Octahydro-12-oxo-8H-[1]benzothieno[2,3-d]pyrido[1,2-a]pyrimidine-7-carboxylic acid ethyl ester] | 10.7% | 15.7% | -0.3% | 13.5% | 14.8% | 24.5%
CCOC(=O)C1CCc2nc3sc4c(c3c(=O)n2CC1)CCCC4 (stereo not drawn) [Compound 16, 1,2,3,4,7,8,9,10,11,13-Decahydro-13-oxo-[1]benzothieno[2′,3′:4,5]pyrimido[1,2-a]azepine-9-carboxylic acid ethyl ester] | 3% | 24.8% | 13.6% | 22.9% | 17.2% | 18.6%
CC1CCc2nc3sc4c(c3c(=O)n2CC1)CCCC4=O (stereo not drawn) [Compound 17, 2,3,8,9,10,11-Hexahydro-9-methyl-[1]benzothieno[2′,3′: 4,5]pyrimido[1,2-a]azepine-4,13(1H,7H)-dione] | 15.2% | 20.1% | 21.6% | 32.4% | 18.4% | 39.4%
CCOC(=O)C1CCCn2c1nc1sc3c(c1c2=O)CCCC3=O (stereo not drawn) [Compound 18, 4,12-Dioxo-1,2,3,4,7,9,10,12-octahydro-8H-[1]benzothieno[2,3-d]pyrido[1,2-a]pyrimidine-7-carboxylic acid ethyl ester] | 18.7% | 23.8% | -3% | 21.3% | 0.5% | 9.5%
CCOC(=O)C1CCc2nc3sc4c(c3c(=O)n2CC1)CCCC4=O (stereo not drawn) [Compound 19, 4,13-Dioxo-1,2,3,4,7,8,9,10,11,13-decahydro-[1]benzothieno[2′,3′: 4,5]pyrimido[1,2-a]azepine-9-carboxylic acid ethyl ester] | 0.6% | 4.4% | 13% | 10.5% | 10.6% | 33.1%
CC1CCc2nc3sc4c(c3c(=O)n2CC1)CCC(C=O)=C4Cl (stereo not drawn) [Compound 20, 4-Chloro-9-methyl-1,2,7,8,9,10,11,13-octahydro-13-oxo-[1]benzothieno[2′,3′: 4,5]pyrimido [1,2-a]azepine-3-carbaldehyde] | 11.2% | 6.2% | 32% | 100% | 10.4% | 45.7%

Further lines, results first:

inhibition at 1 µM [1] | inhibition at 10 µM [1] | inhibition at 1 µM [2] | inhibition at 10 µM [2] | inhibition at 1 µM [3] | inhibition at 10 µM [3] | SMILES
8.9% | 18.6% | 10.5% | 100% | 74% | 100% | CCCSC1=C(C=O)CCc2c1sc1nc3n(c(=O)c21)CCCCC3 [Compound 5c, 1,2,7,8,9,10,11,13-Octahydro-13-oxo-4-(propylthio)[1]benzothieno[2′,3′:4,5]-pyrimido-[1,2-a]azepine-3-carboxaldehyde]
8.2% | 15.1% | 32.6% | 72% | 54.1% | 100% | CCCCSC1=C(C=O)CCc2c1sc1nc3n(c(=O)c21)CCCCC3 [Compound 5d, 1,2,7,8,9,10,11,13-Octahydro-13-oxo-4-(butylthio)[1]benzothieno[2′,3′:4,5]-pyrimido-[1,2-a]azepine-3-carboxaldehyde]
8.4% | 20.2% | 50.8% | 86.3% | 71.9% | 100% | CC(C)SC1=C(C=O)CCc2c1sc1nc3n(c(=O)c21)CCCCC3 [Compound 5e, 1,2,7,8,9,10,11,13-Octahydro-13-oxo-4-(isopropylthio)[1]benzothieno[2′,3′:4,5]-pyrimido-[1,2-a]azepine-3-carboxaldehyde]
11.6% | 17.3% | 22.5% | 80.5% | 43.9% | 100% | CCCSC1=C(C=O)CCc2c1sc1nc3n(c(=O)c21)CCCCCC3 [Compound 5i, 1,2,7,9,10,11,12,14-octahydro-14-oxo-4-(propylthio)-8H-[1]benzothieno[2′,3′:4,5]pyrimido-[1,2-a]-azocine-3-carbaldehyde]
11.6% | 42.5% | 45.9% | 48.9% | 51.8% | 100% | O=c1c2c3c(sc2nc2n1CCCCC2)C(Sc1ccccc1)=C(CO)CC3 [Compound 6a, 1,2,7,8,9,10,11,13-Octahydro-13-oxo-4-(phenylthio)[1]benzothieno[2′,3′:4,5]-pyrimido-[1,2-a]azepine-3-hydroxymethyl]
37.5% | 36.7% | 20.4% | 38.1% | 47.7% | 82.4% | CCCSC1=C(CO)CCc2c1sc1nc3n(c(=O)c21)CCCCC3 [Compound 6c, 1,2,8,9,10,11-Hexahydro-3-(hydroxymethyl)-4-(propylthio)-[1]benzothieno[2′,3′:4,5]-pyrimido-[1,2-a]azepine-13(7H)-one]
